Data: patent EP2440195B1, “USE OF ALKYLGLYCEROLS FOR PREPARING DRUGS” (Université de Rennes I, priority 2009, dated 2010)

Experiments:
[1] = system: cellules du carcinome pulmonaire de Lewis; experiment: Survival and tumour growth in mice grafted with Lewis lung carcinoma, five diets (alkylglycerol 18:1 and/or DFMO, normal or polyamine-deficient diet); type: in vivo, souris C57BL/6
Text: Cette figure représente les variations de volume de tumeurs (en mm^3, indiqués en ordonnées) en fonction du nombre de jours (indiqués en abscisses) écoulés après la greffe de ladite tumeur chez des souris C57BL/6. Les souris sont greffées avec une tumeur solide de cellules du carcinome pulmonaire de Lewis.
(§1) Cette figure représente le pourcentage de survie (en ordonnées) de souris C57BL/6, en fonction du nombre de jours (en abscisses) écoulés après la greffe d'une tumeur solide de cellules du carcinome pulmonaire de Lewis. La représentation utilisée est sous forme de graphique de Kaplan-Meier, le test statistique Log-Rank est utilisé pour la comparaison de la survie (fiabilité p < 0,0001).
(§2) Des souris femelles C57BL/6, âgées de 8 semaines et pesant 20g (élevage Janvier, Le Genest St Isle, France) sont acclimatées 1 semaine avant le début de l'étude. La manipulation des animaux est réalisée en accord avec les directives éthiques pour l'expérimentation et selon les recommandations de l'Association Européenne de Recherche Biomédicale.
(§3) Les cellules de carcinome pulmonaire de Lewis (3LL) ont été obtenues auprès de l'ECACC (European collection of cell cultures) et greffées par injection intramusculaire dans les pattes postérieures de souris femelles C57BL/6 selon la méthode décrite précédemment (Hergueux J. et al., Exp. Cell Biol., 1983, 51(4), 181-191) pour produire des cellules tumorales. Après 20 jours, les cellules tumorales sont collectées et dispersées dans du PBS, comptées et diluées pour atteindre 1 ×10^6 cellules / 100 µL, avant d'être greffées dans les souris.
Le modèle animal (souris C57BL/5) et le modèle tumoral (carcinome de Lewis) sont décrits précédemment. Les souris sont greffées avec […] tumorales, par injection intramusculaire. […]

[2] = system: cellules du carcinome pulmonaire de Lewis; experiment: Survival study by diet (PDD or PCD) and alkylglycerol 18:1 or olive oil, Lewis lung carcinoma graft; type: in vivo, souris C57BL/6; settings: for différence dans la valeur de survie médiane: Log-Rank; for valeur médiane de survie: 25 mice per group
Text: as §1, with “souris,” for “souris C57BL/6,”, “Lewis. Les souris sont réparties en 2 groupes de 25 individus. Les deux groupes sont alimentés avec des régimes alimentaires différents. Les valeurs médianes de survie sont observées.” for “Lewis.”, “survie.” for “survie (fiabilité p < 0,0001).”
as §2, §3
Au premier jour de l'expérience, 0,1 ×10^6 cellules tumorales sont greffées par injection intramusculaire, à chaque souris. Les souris greffées sont réparties aléatoirement dans les cages par groupe de 25 individus.
Quatre groupes sont constitués, chacun comprenant 25 souris greffées avec des cellules tumorales. Les souris sont réparties dans 8 cages avec 12 à 13 individus par cage. Chaque groupe de souris comprend les individus de deux cages. Chaque groupe de souris est alimenté avec un régime alimentaire différent. La consommation d'aliments est suivie deux fois par semaine, et le nombre de décès deux fois par jour.
Les quatre types de régime alimentaire sont : • régime 1, aliment synthétique appauvri en polyamines (PDD) et enrichi en huile d'olive (20 g / kg d'aliment), • régime 2, aliment synthétique appauvri en polyamines (PDD) et enrichi en alkylglycérol 18 :1 (25 mg par jour et par souris), • régime 3, aliment synthétique contenant des polyamines (PCD), enrichi en huile d'olive (20 g / kg d'aliment), • régime 4, aliment synthétique contenant des polyamines (PCD), enrichi en alkylglycérol 18 :1 (25 mg par jour et par souris).

[3] = system: néo vascularisation induite par le Matrigel; experiment: Matrigel plug angiogenesis test (haemoglobin content of the gel, VEGF-induced); type: in vivo, souris C57BL/5; settings: PDD
Experimental: Cette figure représente le pourcentage de concentration en hémoglobine dans du Matrigel (BD Biosciences) (en ordonnées), 10 jours après injection dudit Matrigel (500µL) à des souris.
La colonne du centre représente les souris témoins ayant été traitées avec du VEGF. Ces souris ont été greffées avec du Matrigel contenant du VEGF (50 ng/mL). Le pourcentage de concentration en hémoglobine est fixé arbitrairement à 100% et sert de référence pour quantifier les pourcentages des deux autres groupes.
La néo vascularisation induite par le Matrigel est dosée suivant une modification de la méthode de Kimura et al. (Cancer Sci. 2004, 95(9), 758-764). En résumé, tous les animaux ont été traités par injection sous-cutanée de Matrigel (500µL) contenant 32 unités/mL d'héparine et éventuellement 50 ng/mL de VEGF (Vascular Endothelial Growth Factor).
Le modèle animal (souris C57BL/5) et le Matrigel sont décrits précédemment.
Le Matrigel est injecté en sous-cutané (500 µL par injection) à trois groupes de 6 souris : • Groupe 1 : Matrigel sans VEGF, régime alimentaire appauvri en polyamines (PDD). • Groupe 2 : Matrigel avec VEGF, régime alimentaire appauvri en polyamines (PDD). • Groupe 3 : Matrigel avec VEGF, régime alimentaire appauvri en polyamines (PDD), enrichi en alkylglycérol 18 :1 (25 mg par jour et par souris)
Dix jours après injection les souris sont euthanasiées et le Matrigel est prélevé, pesé, photographié. Le Matrigel est ensuite dissocié mécaniquement dans du PBS, homogénéisé puis est mis dans une solution de Drabkin's pour le dosage de l'hémoglobine. Les solutions sont déposées dans des puits d'une plaque 96 puits contenant une solution de Drabkin's et lecture dans un lecteur de plaque à 540 nm.
La concentration en hémoglobine observe dans le Matrigel du groupe 2 est fixé arbitrairement à 100% et sert de référence lors des comparaisons avec les résultats obtenus avec les groupes 1 et 3 (Figure 8).

[4] = system: carcinome de Lewis; experiment: Antitumour agent Example 2: chemotherapy with PCD/PDD diets, DFMO and alkylglycerol C18:1, Lewis carcinoma graft; type: in vivo, souris C57BL/5
Experimental: Le modèle animal (souris C57BL/5) et le modèle tumoral (carcinome de Lewis) sont décrits précédemment. Les souris sont greffées avec 0,1 ×10^6 cellules tumorales, par injection intramusculaire.
Quatres ensembles d'animaux sont constitués : A, B, C et D. • L'ensemble A est traité avec une monochimiothérapie a forte dose (cyclophosphamide, 90 mg / kg / semaine). • L'ensemble B est traité avec une monochimiothérapie a faible dose (cyclophosphamide, 20 mg / kg / semaine). • L'ensemble C est traité avec une polychimiothérapie combinant trois agents antitumoraux (methotrexate, cyclophosphamide, vindesine). Le premier jour de l'expérience l'ensemble C est traité avec le methotrexate (1,7 mg / kg). Le second jour de l'expérience l'ensemble C est traité avec le cyclophosphamide (20 mg / kg). Le troisième jour de l'expérience l'ensemble C est traité avec la vindesine (0,25 mg/kg). • L'ensemble D est traité avec une solution saline (NaCl, 0,14 M), il s'agit d'un groupe témoin.
Pour chacun des 4 ensembles, les souris sont réparties en 8 groupes (soit 32 groupes au total) en fonction de leurs alimentations : • Le groupe 1a : aliment synthétique contenant des polyamines (PCD), • le groupe 1b : aliment synthétique contenant des polyamines (PCD), et avec une eau contenant du DFMO, • le groupe 1c : aliment synthétique contenant des polyamines (PCD), enrichi en alkylglycérol, • le groupe 1d : aliment synthétique contenant des polyamines (PCD), enrichi en alkylglycérol, et avec une eau contenant du DFMO, • le groupe 2a : aliment synthétique appauvri en polyamines (PDD), • le groupe 2b : aliment synthétique appauvri en polyamines (PDD), et avec une eau contenant du DFMO, • le groupe 2c : aliment synthétique appauvri en polyamines (PDD), enrichi en alkylglycérol, • le groupe 2d : aliment synthétique appauvri en polyamines (PDD), enrichi en alkylglycérol, et avec une eau contenant du DFMO,
L'alkylglycérol est le C 18 :1 (alcool sélachylique) et est mélangé à l'alimentation des souris (25 mg par jour et par souris). Le DFMO est mélangé à l'eau de boisson des souris (30 g/L). […]

[5] = régime appauvri en polyamines (PDD), alkylglycérol 18 :1 25 mg / souris / jour and/or DFMO 30 g / L in drinking water, DFMO alone given with huile d'olive
[6] = cyclophosphamide à faible dose (20 mg / kg / semaine), animaux PDD + DFMO (30 g/L)

Row | SMILES | valeur médiane de survie [1, 5] [jours] | valeur médiane de survie ([1]; régime contenant un taux normal de polyamines (PCD), alkylglycérol 18 :1 25 mg / souris / jour, days after tumour graft) [jours] | différence dans la valeur de survie médiane ([2]; C18 :1 (PCD, régime 4) vs huile d'olive (PCD, régime 3), Figure 4) | différence dans la valeur de survie médiane ([2]; C18 :1 (PDD, régime 2) vs C18 :1 (PCD, régime 4), Figure 7) | différence dans la valeur de survie médiane ([2]; C18 :1 (PDD, régime 2) vs huile d'olive (PCD, régime 3), Figure 5) | différence dans la valeur de survie médiane ([2]; C18 :1 (PDD, régime 2) vs huile d'olive (PDD, régime 1), Figure 3) | influence sur la durée médiane de survie ([2]; overall conclusion of the four-diet survival study) | valeur médiane de survie ([2]; régime appauvri en polyamines (PDD, 10 µg / kg d'aliment), alkylglycérol 18 :1 25 mg / souris / jour or huile d'olive) [jours] | valeur médiane de survie ([2]; régime contenant des polyamines (PCD, 128 mg / kg d'aliment), alkylglycérol 18 :1 25 mg / souris / jour) [jours] | effet anti angiogénique ([3]; Matrigel with VEGF) | réduction de l'angiogénèse ([3]; Matrigel with VEGF, C18 :1 25 mg par jour et par souris, vs VEGF group) [%] | concentration en hémoglobine dans le Matrigel ([3]; relative to VEGF group (50 ng/mL) fixed at 100%, 10 days after injection, alkylglycérol 18 :1 25 mg par jour et par souris, 6 mice) | effect of C18 :1 intake on the benefit of chemotherapy ([4]; C18 :1 25 mg par jour et par souris added to chemotherapy + PDD + DFMO) | dissémination métastatique pulmonaire [4, 6] | progression de la greffe tumorale [4, 6]
1 | NCCCC(N)(C(=O)O)C(F)F (racemic) [DFMO, D,L-2-(difluorométhyl)ornithine, reference compound] | 35 | – | – | – | – | – | – | – | – | – | – | – | – | – | –
2 | CCCCCCCC/C=C\CCCCCCCCOCC(O)CO (stereo not shown) [alkylglycérol 18 :1, alcool sélachylique] | 30 | 31 | Aucune différence significative | Aucune différence significative | Aucune différence significative | Aucune différence significative | n'a pas d'influence significative | 26 | 26 | observé | ~40 | 58,56% | amplifie les effets bénéfiques de la chimiothérapie | – | –
3 | O=P1(N(CCCl)CCCl)NCCCO1 (stereo not shown) [cyclophosphamide] | – | – | – | – | – | – | – | – | – | – | – | – | – | efficace | efficace
